Measured values from patent US11000033B2, “Ketone or oxime compound, and herbicide” (NISSAN CHEMICAL CORPORATION, priority 2014, dated 2021).

Key:
Type in all cases: in vivo
Setaria viridis = assay: Test Example 5: herbicidal effect by foliage application, plastic box (symbol G); conditions: 320 g/ha, 3 weeks after application
How it was run: (§1)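 Effect is rated 3 weeks after a foliar spray of water-diluted emulsion concentrate at a predetermined herbicide amount. Plants had grown 14 days in a 25° C. to 30° C. greenhouse from seed in sterilized diluvial soil.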

Apera spica-venti [1] = assay: Test Example 4: herbicidal effect by soil treatment (symbol L); conditions: application herbicide amount 320 g/ha
How it was run: (§2)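 Seeds were sown in sterilized diluvial soil, covered with about 1.5 cm of soil, and the soil surface was sprayed with a water-diluted emulsion of the compound at a predetermined rate. Plants grew in a greenhouse at 25° C. to 30° C.; effects were scored visually 3 weeks after application.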

Veronica persica = assay: Test Example 5: herbicidal effect by foliage application, plastic box (symbol R); conditions: 320 g/ha, 3 weeks after application
How it was run: as §1

rapeseed [2] = assay: Test Example 4: effect on crop by soil treatment (symbol g); conditions: application herbicide amount 320 g/ha
How it was run: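 Grown at 25° C. to 30° C. in a greenhouse, the crops came from seed sown spot-wise in sterilized diluvial soil under roughly 1.5 cm of covering soil.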

Scirpus juncoides [3] = assay: Test Example 1: herbicidal activity, application before weed generation in submerged conditions (symbol B); conditions: application herbicide amount 320 g/ha
How it was run: (§3)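 Weeds are sown into submerged alluvial soil alongside transplanted 2.5-leaf rice, and the compound, as an emulsion diluted to a set rate, is applied onto the water before emergence. Rating on the 0–5 herbicidal-ratio scale follows 3 weeks of greenhouse growth at 25–30 °C.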

Monochoria vaginalis [4] = assay: Test Example 2: herbicidal activity, application during weed generation in submerged conditions (symbol C); conditions: Table 23; application herbicide amount 320 g/ha; grade 0-5 by criteria of Test Example 1
How it was run: (§4)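 Steps: fill pots with alluvial soil; add water to 4 cm depth; co-sow the three weeds; grow at 25° C. to 30° C. under glass; at 1–2 leaves, dose the floodwater with diluted emulsion; rate damage visually after 3 weeks.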

Digitaria ciliaris = assay: Test Example 4: herbicidal effect by soil treatment (symbol F); conditions: application herbicide amount 320 g/ha
How it was run: as §2

Apera spica-venti [5] = assay: Test Example 5: herbicidal effect by foliage application, plastic box (symbol L); conditions: 320 g/ha, 3 weeks after application
How it was run: as §1

Lolium multiflorum Lam. = assay: Test Example 5: herbicidal effect by foliage application, plastic box (symbol K); conditions: 320 g/ha, 3 weeks after application
How it was run: as §1

rapeseed [6] = assay: Test Example 5: effect on crop by foliage application, plastic box (symbol g); conditions: 320 g/ha, 3 weeks after application
How it was run: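 Box culture: sterile diluvial soil, seeds spot-sown, ~1.5 cm cover, raised under glass at 25–30° C.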

Scirpus juncoides [7] = assay: Test Example 2: herbicidal activity, application during weed generation in submerged conditions (symbol B); conditions: Table 23; application herbicide amount 320 g/ha; grade 0-5 by criteria of Test Example 1
How it was run: as §4

Monochoria vaginalis [8] = assay: Test Example 1: herbicidal activity, application before weed generation in submerged conditions (symbol C); conditions: application herbicide amount 320 g/ha
How it was run: as §3

Amaranthus retroflexus = assay: Test Example 5: herbicidal effect by foliage application, plastic box (symbol N); conditions: 320 g/ha, 3 weeks after application
How it was run: as §1

[9] = test system: Echinochloa crus-galli var. crus-galli; assay: Test Example 4: herbicidal effect by soil treatment (symbol H); conditions: application herbicide amount 320 g/ha
How it was run: as §2

Compound | G: Setaria viridis, herbicidal effect grade (Setaria viridis) | L: Apera spica-venti, herbicidal effect grade (Apera spica-venti [1]) | R: Veronica persica, herbicidal effect grade (Veronica persica) | g: rapeseed, effect on crop grade (rapeseed [2]) | Herbicidal effect grade, B: Scirpus juncoides (Scirpus juncoides [3]) | Herbicidal effect grade, C: Monochoria vaginalis (Monochoria vaginalis [4]) | F: Digitaria ciliaris, herbicidal effect grade (Digitaria ciliaris) | L: Apera spica-venti, herbicidal effect grade (Apera spica-venti [5]) | K: Lolium multiflorum Lam., herbicidal effect grade (Lolium multiflorum Lam.) | g: rapeseed, effect on crop grade (rapeseed [6]) | Herbicidal effect grade, B: Scirpus juncoides (Scirpus juncoides [7]) | Herbicidal effect grade, C: Monochoria vaginalis (Monochoria vaginalis [8]) | N: Amaranthus retroflexus, herbicidal effect grade (Amaranthus retroflexus) | H: Echinochloa crus-galli var. crus-galli, herbicidal effect grade [9] | G: Setaria viridis, herbicidal effect (criteria of Test Example 1) (Setaria viridis) | R: Veronica persica, herbicidal effect (criteria of Test Example 1) (Veronica persica) | L: Apera spica-venti, herbicidal effect (criteria of Test Example 1) (Apera spica-venti [5]) | K: Lolium multiflorum Lam., herbicidal effect (criteria of Test Example 1) (Lolium multiflorum Lam.) | g: rapeseed, effect on crop (criteria of Test Example 1) (rapeseed [6]) | N: Amaranthus retroflexus, herbicidal effect (criteria of Test Example 1) (Amaranthus retroflexus) | other results
CON=C(C)CC1CC(O)=C(c2c(C)cc(Oc3ccccc3)cc2C)C1=O (stereo not shown) [6-052] | 5 (Herbicidal ratio of 90% or more (almost completely withered)) | 5 (Herbicidal ratio of 90% or more (almost completely withered)) | 0 (Herbicidal ratio of 5% or lower (almost no effect)) | 3 (Herbicidal ratio of 40% or higher and lower than 70%) | 1 (Herbicidal ratio of 5% or higher and lower than 20%) | 0 (Herbicidal ratio of 5% or lower (almost no effect)) | 4 (Herbicidal ratio of 70% or higher and lower than 90%) | 4 (Herbicidal ratio of 70% or higher and lower than 90%) | 5 (Herbicidal ratio of 90% or more (almost completely withered)) | 3 (Herbicidal ratio of 40% or higher and lower than 70%) | 0 (Herbicidal ratio of 5% or lower (almost no effect)) | 0 (Herbicidal ratio of 5% or lower (almost no effect)) | 0 (Herbicidal ratio of 5% or lower (almost no effect)) | 4 (Herbicidal ratio of 70% or higher and lower than 90%) | – | – | – | – | – | – | –
CON=C(C)CC1CC(OC(=O)N(C)C)=C(c2c(C)cc(-c3ccc(Cl)cc3)cc2C)C1=O (mixture of isomers) [6-063] | – | 5 (Herbicidal ratio of 90% or more (almost completely withered)) | – | 0 (Herbicidal ratio of 5% or lower (almost no effect)) | 2 (Herbicidal ratio of 20% or higher and lower than 40%) | 2 (Herbicidal ratio of 20% or higher and lower than 40%) | 5 (Herbicidal ratio of 90% or more (almost completely withered)) | – | – | – | 3 (Herbicidal ratio of 40% or higher and lower than 70%) | 3 (Herbicidal ratio of 40% or higher and lower than 70%) | – | 0 (Herbicidal ratio of 5% or lower (almost no effect)) | 5 (Herbicidal ratio of 90% or more (almost completely withered)) | 0 (Herbicidal ratio of 5% or lower (almost no effect)) | 5 (Herbicidal ratio of 90% or more (almost completely withered)) | 5 (Herbicidal ratio of 90% or more (almost completely withered)) | 4 (Herbicidal ratio of 70% or higher and lower than 90%) | 0 (Herbicidal ratio of 5% or lower (almost no effect)) | –
CON=C(C)CC1CC(O)=C(c2c(C)cc(-n3cncn3)cc2C)C1=O (stereo not shown) [6-074] | – | 0 (Herbicidal ratio of 5% or lower (almost no effect)) | – | 0 (Herbicidal ratio of 5% or lower (almost no effect)) | 0 (Herbicidal ratio of 5% or lower (almost no effect)) | 0 (Herbicidal ratio of 5% or lower (almost no effect)) | 0 (Herbicidal ratio of 5% or lower (almost no effect)) | – | – | – | 0 (Herbicidal ratio of 5% or lower (almost no effect)) | 0 (Herbicidal ratio of 5% or lower (almost no effect)) | – | 0 (Herbicidal ratio of 5% or lower (almost no effect)) | 4 (Herbicidal ratio of 70% or higher and lower than 90%) | 0 (Herbicidal ratio of 5% or lower (almost no effect)) | 0 (Herbicidal ratio of 5% or lower (almost no effect)) | 2 (Herbicidal ratio of 20% or higher and lower than 40%) | 0 (Herbicidal ratio of 5% or lower (almost no effect)) | 0 (Herbicidal ratio of 5% or lower (almost no effect)) | –
CC(=O)CC1CC(O)=C(c2c(C)cc(-c3ccccn3)cc2C)C1=O (stereo not shown) [7-012] | – | – | – | – | 0 (Herbicidal ratio of 5% or lower (almost no effect)) | 0 (Herbicidal ratio of 5% or lower (almost no effect)) | – | – | – | – | 0 (Herbicidal ratio of 5% or lower (almost no effect)) | 0 (Herbicidal ratio of 5% or lower (almost no effect)) | – | – | 5 (Herbicidal ratio of 90% or more (almost completely withered)) | 2 (Herbicidal ratio of 20% or higher and lower than 40%) | 0 (Herbicidal ratio of 5% or lower (almost no effect)) | 5 (Herbicidal ratio of 90% or more (almost completely withered)) | 3 (Herbicidal ratio of 40% or higher and lower than 70%) | 0 (Herbicidal ratio of 5% or lower (almost no effect)) | Herbicidal effect grade, L: Apera spica-venti (Apera spica-venti [1]): 0 (Herbicidal ratio of 5% or lower (almost no effect)); Effect on crop grade, g: rapeseed (rapeseed [2]): 0 (Herbicidal ratio of 5% or lower (almost no effect)); Herbicidal effect grade, F: Digitaria ciliaris (Digitaria ciliaris): 5 (Herbicidal ratio of 90% or more (almost completely withered)); Herbicidal effect grade, H: Echinochloa crus-galli var. crus-galli [9]: 5 (Herbicidal ratio of 90% or more (almost completely withered))
CON=C(C)CC1CC(O)=C(c2c(C)cc(C3CC3)cc2C)C1=O (stereo not shown) [6-050] | 2 (Herbicidal ratio of 20% or higher and lower than 40%) | 0 (Herbicidal ratio of 5% or lower (almost no effect)) | 2 (Herbicidal ratio of 20% or higher and lower than 40%) | 2 (Herbicidal ratio of 20% or higher and lower than 40%) | 1 (Herbicidal ratio of 5% or higher and lower than 20%) | 0 (Herbicidal ratio of 5% or lower (almost no effect)) | 5 (Herbicidal ratio of 90% or more (almost completely withered)) | 4 (Herbicidal ratio of 70% or higher and lower than 90%) | 5 (Herbicidal ratio of 90% or more (almost completely withered)) | 5 (Herbicidal ratio of 90% or more (almost completely withered)) | 0 (Herbicidal ratio of 5% or lower (almost no effect)) | 0 (Herbicidal ratio of 5% or lower (almost no effect)) | 0 (Herbicidal ratio of 5% or lower (almost no effect)) | 4 (Herbicidal ratio of 70% or higher and lower than 90%) | – | – | – | – | – | – | –
